In patent publication US20200339544A1 (JOINT STOCK COMPANY "BIOCAD", priority 2017, published 2020):
Where two headings read alike, the source gives them in different places.

Experiments:
WT EGFR (Wild-Type EGFR) = target: T1, WT EGFR (Wild-Type EGFR) (Homo sapiens, UniProt P00533); assay: Inhibition of WT EGFR kinase activity (ADP-Glo); format: biochemical
T1 construct: purchased SignalChem
Summary of the method: (§1)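 Recombinant WT or double-mutant EGFR was incubated with a solution of 0.5 mg/mL peptide substrate and 50 μM ATP for 180 minutes at 37° C. Kinase activity was detected by ADP-Glo luminescence. IC50 values came from a four-parameter logistic fit.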

[1] = target: T2, DM EGFR (DoubleMutantEGFR, L828R/T790M) (Homo sapiens, UniProt P00533, L858R/T790M); assay: Inhibition of DM EGFR kinase activity (ADP-Glo); format: biochemical; conditions: for IC50: inhibition of kinase activity, EGFR DM (L828R/T790M); for SI, IC50(WT)/IC50(DM): selectivity index, kinase EGFR WT vs EGFR DM
T2 construct: purchased SignalChem
Summary of the method: as §1

[2] = system: A549 (lung adenocarcinoma, WT); assay: Antiproliferative activity on A549 cells (Alamar Blue); format: cell-based; conditions: Homo sapiens, antiproliferative test
Summary of the method: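 Cells seeded at 5*10^3/well in RPMI-1640 with 2% FBS, attached 16-18 h at 37° C, then exposed to compounds (≤1% DMSO) for 72 h. Alamar Blue added for 3-5 h; fluorescence read at 540/590 nm. IC50 from four-parameter logistic fit.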

[3] = system: HCC827 (lung adenocarcinoma, SM, exon19delE746-A750); assay: Antiproliferative activity on HCC827 cells (Alamar Blue); format: cell-based; conditions: Homo sapiens, antiproliferative test
Description: Antiproliferative activity of EGFR inhibitors (Tables 15 and 16) was measured in cell-based bioassay on continuous epithelial cell cultures: A549 (lung adenocarcinoma, ATCC® CRM-CCL-185™—WT), HCC827 (lung adenocarcinoma, ATCC® CRL-2868™—SM (SingleMutantEGFR, exon19delE746-A750)) and H1975 (lung adenocarcinoma, ATCC® CRL-5908™—DM (DoubleMutantEGFR, L828R/T790M)) using cell viability reagent Alamar Blue (ThermoFisher, # DAL1100). Cells were cultured in 10% FBS-supplemented (Gibco, #16140071) RPMI-1640 (PanEco, S330p) for at least 1 passage after thawing, washed with PBS and passaged in 96-well culture plates (3599, Corning) with RPMI-1640 growth medium supplemented with 2% FBS in an amount of 5*10^3 cells/well for A549, 10*10^3 cells/well for HCC827 and 15*10^3 cells/well for H1975 in 100 μL, and incubated at 37° C. in an incubator (Thermo Forma, USA) under 5% of CO2 for 16-18 h for cell attachment.
The test compounds were dissolved in DMSO in the selected range of concentrations and transferred to RPMI-1640 medium (PanEco, S330p) supplemented with 2% FBS. After adding 50 μl of the prepared dilutions to the cells, the incubation mixture contained the final concentrations of the test substances and no more than 1% DMSO. The plates were Incubated at 37° C. for 72 h. After incubation, 15 μl of Alamar Blue vital dye (ThermoFisher, # DAL1100) was added to each well. The plates were shaken on an orbital shaker (Biosan, Latvia) and further incubated for 3-5 h in a CO2 incubator (Thermo Forma, USA). Number of living cells was estimated using a plate spectrophotometer Infinite M200Pro, (Tecan, Switzerland) measuring fluorescent signal at the excitation wavelength (λEx) of 540 nm and emission wavelength (λEm) of 590 nm.
IC50 was calculated using Magellan 7.2 software (Tecan, Switzerland) approximating experimental points by four-parameter logistic model with the optimization by Levenberg-Marquardt.

[4] = system: H1975 (lung adenocarcinoma, DM, L828R/T790M); assay: Antiproliferative activity on H1975 cells (Alamar Blue); format: cell-based; conditions: for IC50: Homo sapiens, NCI-H1975, H1975 cells; for SI IC50(A549)/IC50(DM): selectivity index, A549 vs H1975 cells
Summary of the method: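 H1975 cells (15*10^3/well) attached 16-18 h in RPMI-1640 with 2% FBS, then exposed to compounds (≤1% DMSO final) for 72 h at 37 °C. Viability by Alamar Blue fluorescence (Ex 540/Em 590 nm) after 3-5 h; IC50 from four-parameter logistic fit.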

[5] = General cytotoxicity on HepG2 cells; format: cell-based; conditions: human; general cytotoxicity, HepG2 cells, 72 hours, average of several tests
Summary of the method: (§2)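 HepG2 cells seeded at 2*10^4 cells per well and compounds added in DMEM with 2% FBS for 72 h at 37 °C. Viability read with Alamar Blue and CC50 derived as for IC50. Therapeutic index taken as HepG2 CC50 over H1975 IC50.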

HepG2 cells = assay: General cytotoxicity on HepG2 cells; format: cell-based; conditions: therapeutic index, CC50 HepG2 / IC50 H1975
Summary of the method: as §2

[6] = Chemical stability in human blood plasma; format: in vitro ADME; conditions: pooled human blood plasma; 10 μm; 4 hours at 37° C.; substance amount remaining
Summary of the method: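 Pooled plasma from ten healthy donors was spiked to 10 μM from a 10 mM DMSO stock and held 4 h at 37 °C. After acetonitrile protein precipitation, HPLC peak areas before and after incubation gave the percentage of compound remaining.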

[7] = Enzyme stability in human liver S9 fractions; format: in vitro ADME; conditions: 0.5 mg/mL pooled human liver S9 fractions; 10 μM compound; 37° C.; pH 7.4; read-out: Stability in liver S9 fractions, Clint
Description: Determination of enzyme stability.
Measuring of candidate enzyme stability enabled estimation of the stability of the compounds towards the action of liver enzymes.
Enzyme degradation rate was measured by incubating the reaction mixture in a dry block thermostat at 37° C., said reaction mixture comprising 0.5 mg/mL of pooled human liver S9 fractions (XenoTech, USA, cat # H0610), 10 μM compound, 2 mM β-nicotinamide adenine dinucleotide (Carbosynth, UK, cat # NN10871) and 4 mM magnesium chloride in 0.1 M sodium-phosphate buffer, pH=7.4. The reaction was quenched with acetonitrile (100 μL of acetonitrile/100 μL of the reaction mixture). After quenching, the samples were centrifuged at 10000 rpm for 10 minutes. Supernatant fluid was tested by chromatographic technique using Agilent1200 (Agilent, USA). We used gradient elution (1 mL/min flow rate). A graph of the logarithm of substance's peak area as a function of time was made. The dependent factor of the line corresponded to the elimination rate constant K based on which the drug's half-life T½ and intrinsic clearance CLint were calculated:
Based on the data obtained, candidate enzyme stability in human liver S9 fractions was determined (see Table 11).

[8] = average values obtained in several tests, Table 16, read-out: H1975 (DM) IC50
[9] = antiproliferative test, Table 15, read-out: IC50 H1975 (DM)

SMILES	IC50 (WT EGFR (Wild-Type EGFR)) [nM]	IC50 [1] [nM]	SI, IC50(WT)/IC50(DM) [1]	IC50 [2] [nM]	IC50 [3] [nM]	IC50 [4, 8] [nM]	IC50 [4, 9] [nM]	SI IC50(A549)/IC50(DM) [4]	CC50 at 72 h [5] [nM]	TI, CC50/IC50 (HepG2 cells)	Stability in blood plasma, % [6] [%]	Intrinsic clearance in human liver S9 fractions at 10 µM [7] [µL/min/mg]
C=CC(=O)Nc1cc(Nc2cc(C(=O)c3ccc(N(CC)CC)cc3)ccn2)c(OC)cc1N(C)CCN(C)C	145	5.53	26.20	4420	13.9	34.2	34.2	129	7820	229		
C=CC(=O)Nc1cc(Nc2cc(C(=O)c3ccc(OCC(C)C)cc3)ccn2)c(OC)cc1N(C)CCN(C)C [EGFR_3365_77, N-(2-((2-(dimethylamino)ethyl)(methyl)amino)-5-((4-(4-isobutoxybenzoyl)pyridin-2-yl)amino)-4-methoxyphenyl) acrylamide]	49.9	4.97	10.04	2170	23.5	249	249	9	8340	33		
C=CC(=O)Nc1cc(Nc2nccc(C(=O)c3ccc(N4CC[C@@H](O)C4)cc3)n2)c(OC)cc1N(C)CCN(C)C [EGFR_3365_113, (R)-N-(2-((2-(dimethylamino)ethyl)(methyl)amino)-5-((4-(4-(3-hydroxypyrrolidin-1-yl)benzoyl)pyrimidin-2-yl)amino)-4-methoxyphenyl)acrylamide]	43.4	2.54	17.09	13600		4.42	4.42	3073	46300	10481	94.0	10.5
C=CC(=O)Nc1cc(Nc2nccc(C(=O)c3ccc(N4CC[C@H](OC)C4)cc3)n2)c(OC)cc1N(C)CCN(C)C [EGFR_3365_114, (S)-N-(2-((2-(dimethylamino)ethyl)(methyl)amino)-4-methoxy-5-((4-(4-(3-methoxypyrrolidin-1-yl)benzoyl)pyrimidin-2-yl)amino)phenyl)acrylamide]	51.4	2.02	25.37	14200		12.1	12.1	1175	23800	1970	93.9	16
C=CC(=O)Nc1cc(Nc2nccc(C(=O)c3ccc(N4CC[C@@H](OC)C4)cc3)n2)c(OC)cc1N(C)CCN(C)C [EGFR_3365_115, (R)-N-(2-((2-(dimethylamino)ethyl)(methyl)amino)-4-methoxy-5-((4-(4-(3-methoxypyrrolidin-1-yl)benzoyl)pyrimidin-2-yl)amino)phenyl)acrylamide]	126	1.99	63.44	12800		19.1	19.1	670	22000	1154	94.6	19.8
C=CC(=O)Nc1cc(Nc2nccc(C(=O)c3ccc(N4CCCC4)cc3OC)n2)c(OC)cc1N(C)CCN(C)C [EGFR_3365_123, N-(2-((2-(dimethylamino)ethyl)(methyl)amino)-4-methoxy-5-((4-(2-methoxy-4-(pyrrolidin-1-yl)benzoyl)pyrimidin-2-yl)amino)phenyl)acrylamide]	52	2.65	19.58	7190		1.18	1.18	6105	40000	33959	87.3	9.2
C=CC(=O)Nc1cc(Nc2nccc(C(=O)c3c(OC)cc(OC)cc3OC)n2)c(OC)cc1N(C)CCN(C)C [EGFR_3365_124, N-(2-((2-(dimethylamino)ethyl)(methyl)amino)-4-methoxy-5-((4-(2,4,6-trimethoxybenzoyl)pyrimidin-2-yl)amino)phenyl)acrylamide]	76.3	3.57	21.41	19700		66.3	66.3	298	> 50000	>754	90.7	22.2
